Molecules are shown by their SMILES. A value given as a limit tells only on which side of the number the result lay.

The nature of data set [1]: Solubility determination. As to conditions: for Sol6: pH 6; for Sol7: pH 7. The gist of the method:
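Shake-flask style: 10 mg/ml peptide (TFA salt), 0.1 M sodium diphosphate pH 6.4/7.0, 600 rpm, 2 h, RT; filter; dilute 1 mg/ml in 50% MeCN; RP-UPLC, 0–100% B over 2 min, 50 °C. Solubility = sample/control area ratio. Final pH recorded.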

Data set [2] concerns the target T1, Human Neuropeptide Y2 Receptor (Homo sapiens, UniProt P49146).
T1 construct: purchased CHEMICON HTS066M
T1 sequence (P49146 1-381): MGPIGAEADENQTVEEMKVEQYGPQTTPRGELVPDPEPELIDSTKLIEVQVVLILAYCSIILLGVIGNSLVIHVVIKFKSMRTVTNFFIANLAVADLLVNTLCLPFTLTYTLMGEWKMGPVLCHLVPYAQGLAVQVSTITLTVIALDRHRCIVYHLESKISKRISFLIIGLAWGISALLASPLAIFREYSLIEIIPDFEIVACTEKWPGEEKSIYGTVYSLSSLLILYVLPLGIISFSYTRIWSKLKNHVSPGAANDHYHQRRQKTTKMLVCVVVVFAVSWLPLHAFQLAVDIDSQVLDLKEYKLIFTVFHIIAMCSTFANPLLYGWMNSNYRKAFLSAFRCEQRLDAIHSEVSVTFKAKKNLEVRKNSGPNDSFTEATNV
Nature of the data set: Radioligand binding competition assay (RLB). The settings on record: Table 3, 125I-PYY(1-36) competition; read-out: Ki. The method, boiled down:
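Receptor membranes, 0.5 μg/well; buffer 50 mM HEPES/5 mM MgCl2/1 mM CaCl2/0.2% ovalbumin, pH 7.4; 2 h RT, shaking. GF/C filtration, cold HEPES/500 mM NaCl wash, scintillation count. IC50 by nonlinear regression.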

What is called Ki is the equilibrium dissociation constant of an inhibitor or competing ligand from its target. With `CC(C)CC(=O)N[C@@H](C)C(=O)N1CCC[C@H]1C(=O)N[C@@H](CCC(=O)O)C(=O)N[C@@H](CCCCNC(=O)CCCCCNC(=O)CC[C@H](NC(=O)CCCCCCCCCCCCCCCCC(=O)O)C(=O)O)C(=O)N1CCC[C@H]1C(=O)N[C@@H](CCC(=O)O)C(=O)N[C@@H](CCC(=O)O)C(=O)N[C@@H](CC(=O)O)C(=O)N[C@@H](C)C(=O)N[C@@H](CO)C(=O)N1CCC[C@H]1C(=O)N[C@@H](CCC(=O)O)C(=O)N[C@@H](CCC(=O)O)C(=O)N[C@@H](CC(C)C)C(=O)N[C@@H](CCC(N)=O)C(=O)N[C@@H](CCCNC(=N)N)C(=O)N[C@@H](Cc1ccc(O)cc1)C(=O)N[C@@H](Cc1ccc(O)cc1)C(=O)N[C@H](C(=O)N[C@@H](CO)C(=O)N[C@@H](CC(C)C)C(=O)N[C@@H](CCCNC(=N)N)C(=O)N[C@@H](Cc1c[nH]cn1)C(=O)N[C@@H](Cc1ccc(O)cc1)C(=O)N[C@@H](Cc1ccc(O)cc1)C(=O)N[C@@H](CCC(N)=O)C(=O)N[C@@H](Cc1c[nH]c2ccccc12)C(=O)N[C@@H](CC(C)C)C(=O)N[C@H](C(=O)N[C@@H](CCCNC(=N)N)C(=O)N[C@@H](CCC(N)=O)C(=O)N[C@@H](CCCNC(=N)N)C(=O)N[C@@H](Cc1ccc(O)cc1)C(N)=O)[C@@H](C)O)C(C)C` [Compound 60, N{alpha-4}-(3-methylbutanoyl)-N{epsilon-7}-(6-[(4S)-4-carboxy-4-(17-carboxyheptadecanamido)butanamido]hexanoyl)-[4A,7K,9E,18Q,22V,28Y,29Q,30W,31L]-hPYY(4-36)], in data set [1], the “Sol6” value was greater than 10.0 mg/mL and the “Sol7” value is 10.0 mg/mL. In addition, the inhibition constant Ki in data set [2] worked out at 6.04 nM.
The matching figures for `CC[C@H](C)[C@H](NC(=O)[C@H](CCC(=O)O)NC(=O)[C@H](CCC(=O)O)NC(=O)[C@@H]1CCCN1C(=O)[C@H](CCC(=O)O)NC(=O)[C@H](C)NC(=O)[C@H](CC(=O)O)NC(=O)[C@H](C)NC(=O)[C@H](CCC(=O)O)NC(=O)[C@@H]1CCCN1C(=O)[C@H](CCCCNC(=O)CCCCCNC(=O)CC[C@H](NC(=O)CCCCCCCCCCCCCCCCC(=O)O)C(=O)O)NC(=O)[C@H](C)NC(=O)[C@@H]1CCCN1C(=O)[C@H](C)NC(=O)CC(C)C)C(=O)N[C@@H](CCC(N)=O)C(=O)N[C@@H](CCCNC(=N)N)C(=O)N[C@@H](Cc1ccc(O)cc1)C(=O)N[C@@H](Cc1ccc(O)cc1)C(=O)N[C@H](C(=O)N[C@@H](C)C(=O)N[C@@H](CC(C)C)C(=O)N[C@@H](CCCNC(=N)N)C(=O)N[C@@H](Cc1c[nH]cn1)C(=O)N[C@@H](Cc1ccc(O)cc1)C(=O)N[C@@H](Cc1ccc(O)cc1)C(=O)N[C@@H](CC(N)=O)C(=O)N[C@@H](Cc1c[nH]c2ccccc12)C(=O)N[C@@H](CC(C)C)C(=O)N[C@H](C(=O)N[C@@H](CCCNC(=N)N)C(=O)N[C@@H](CCC(N)=O)C(=O)N[C@@H](CCCNC(=N)N)C(=O)N[C@@H](Cc1ccc(O)cc1)C(N)=O)[C@@H](C)O)C(C)C` [Compound 181, N{alpha-4}-(3-methylbutanoyl)-N{epsilon-7}-(6-[(4S)-4-carboxy-4-(17-carboxyheptadecanamido)butanamido]hexanoyl)-[4A,6A,7K,9E,10A,13E,17I,18Q,22V,23A,28Y,30W,31L]-hPYY(4-36)]: 9.5 mg/mL, 9.3 mg/mL and 1.33 nM.
The matching figures for `CC(C)CC(=O)N[C@@H](C)C(=O)N1CCC[C@H]1C(=O)N[C@@H](CCC(=O)O)C(=O)N[C@@H](CCCCNC(=O)CCCCCNC(=O)CC[C@H](NC(=O)CCCCCCCCCCCCCCCCC(=O)O)C(=O)O)C(=O)N1CCC[C@H]1C(=O)N[C@@H](CCC(=O)O)C(=O)N[C@@H](CCC(=O)O)C(=O)N[C@@H](CC(=O)O)C(=O)N[C@@H](C)C(=O)N[C@H](C(=O)N1CCC[C@H]1C(=O)N[C@@H](CCC(=O)O)C(=O)N[C@@H](CCC(=O)O)C(=O)N[C@@H](CC(C)C)C(=O)N[C@@H](CCC(N)=O)C(=O)N[C@@H](CCCNC(=N)N)C(=O)N[C@@H](Cc1ccc(O)cc1)C(=O)N[C@@H](Cc1ccc(O)cc1)C(=O)N[C@H](C(=O)N[C@H](C(=O)N[C@@H](CC(C)C)C(=O)N[C@@H](CCCNC(=N)N)C(=O)N[C@@H](Cc1c[nH]cn1)C(=O)N[C@@H](Cc1ccc(O)cc1)C(=O)N[C@@H](Cc1ccc(O)cc1)C(=O)N[C@@H](CC(N)=O)C(=O)N[C@@H](Cc1c[nH]c2ccccc12)C(=O)N[C@@H](CC(C)C)C(=O)N[C@H](C(=O)N[C@@H](CCCNC(=N)N)C(=O)N[C@@H](CCC(N)=O)C(=O)N[C@@H](CCCNC(=N)N)C(=O)N[C@@H](Cc1ccc(O)cc1)C(N)=O)[C@@H](C)O)[C@@H](C)O)C(C)C)[C@@H](C)O` [Compound 148, N{alpha-4}-(3-methylbutanoyl)-N{epsilon-7}-(6-[(4S)-4-carboxy-4-(17-carboxyheptadecanamido)butanamido]hexanoyl)-[4A,7K,9E,13T,18Q,22V,23T,28Y,30W,31L]-hPYY(4-36)]: 9.7 mg/mL, 10.0 mg/mL and 2.85 nM.
`CC[C@H](C)[C@H](NC(=O)[C@H](CCC(=O)O)NC(=O)[C@H](CCC(=O)O)NC(=O)[C@@H]1CCCN1C(=O)[C@@H](NC(=O)[C@H](C)NC(=O)[C@H](C)NC(=O)[C@H](CCC(=O)O)NC(=O)[C@H](CCC(=O)O)NC(=O)[C@@H]1CCCN1C(=O)[C@H](CCCCNC(=O)CCCCCNC(=O)CC[C@H](NC(=O)CCCCCCCCCCCCCCCCC(=O)O)C(=O)O)NC(=O)[C@H](CCC(=O)O)NC(=O)[C@@H]1CCCN1C(=O)[C@H](C)NC(=O)CC(C)C)[C@@H](C)O)C(=O)N[C@@H](CCC(N)=O)C(=O)N[C@@H](CCCNC(=N)N)C(=O)N[C@@H](Cc1ccc(O)cc1)C(=O)N[C@@H](Cc1ccc(O)cc1)C(=O)N[C@H](C(=O)N[C@@H](C)C(=O)N[C@@H](CC(C)C)C(=O)N[C@@H](CCCNC(=N)N)C(=O)N[C@@H](Cc1c[nH]cn1)C(=O)N[C@@H](Cc1ccc(O)cc1)C(=O)N[C@@H](Cc1ccc(O)cc1)C(=O)N[C@@H](CC(N)=O)C(=O)N[C@@H](Cc1c[nH]c2ccccc12)C(=O)N[C@@H](CC(C)C)C(=O)N[C@H](C(=O)N[C@@H](CCCNC(=N)N)C(=O)N[C@@H](CCC(N)=O)C(=O)N[C@@H](CCCNC(=N)N)C(=O)N[C@@H](Cc1ccc(O)cc1)C(N)=O)[C@@H](C)O)C(C)C` [Compound 154, N{alpha-4}-(3-methylbutanoyl)-N{epsilon-7}-(6-[(4S)-4-carboxy-4-(17-carboxyheptadecanamido)butanamido]hexanoyl)-[4A,7K,9E,11A,13T,17I,18Q,22V,23A,28Y,30W,31L]-hPYY(4-36)]: in data set [1], the “Sol6” value stood at 8.3 mg/mL and the “Sol7” value was greater than 10.0 mg/mL. Moreover, the Ki in data set [2] amounted to 3.71 nM.
The matching figures for `CC(C)CC(=O)N[C@@H](C)C(=O)N1CCC[C@H]1C(=O)N[C@@H](CCC(=O)O)C(=O)N[C@@H](CCCCNC(=O)CCCCCNC(=O)CC[C@H](NC(=O)CCCCCCCCCCCCCCCCC(=O)O)C(=O)O)C(=O)N1CCC[C@H]1C(=O)N[C@@H](CCC(=O)O)C(=O)N[C@@H](CCC(=O)O)C(=O)N[C@@H](CC(=O)O)C(=O)N[C@@H](C)C(=O)N[C@H](C(=O)N1CCC[C@H]1C(=O)N[C@@H](CCC(=O)O)C(=O)N[C@@H](CCC(=O)O)C(=O)N[C@@H](CC(C)C)C(=O)N[C@@H](CCC(N)=O)C(=O)N[C@@H](CCCNC(=N)N)C(=O)N[C@@H](Cc1ccc(O)cc1)C(=O)N[C@@H](Cc1ccc(O)cc1)C(=O)N[C@H](C(=O)N[C@@H](CCC(=O)O)C(=O)N[C@@H](CC(C)C)C(=O)N[C@@H](CCCNC(=N)N)C(=O)N[C@@H](Cc1c[nH]cn1)C(=O)N[C@@H](Cc1ccc(O)cc1)C(=O)N[C@@H](Cc1ccc(O)cc1)C(=O)N[C@@H](CC(N)=O)C(=O)N[C@@H](Cc1c[nH]c2ccccc12)C(=O)N[C@@H](CC(C)C)C(=O)N[C@H](C(=O)N[C@@H](CCCNC(=N)N)C(=O)N[C@@H](CCC(N)=O)C(=O)N[C@@H](CCCNC(=N)N)C(=O)N[C@@H](Cc1ccc(O)cc1)C(N)=O)[C@@H](C)O)C(C)C)[C@@H](C)O` [Compound 110, N{alpha-4}-(3-methylbutanoyl)-N{epsilon-7}-(6-[(4S)-4-carboxy-4-(17-carboxyheptadecanamido)butanamido]hexanoyl)-[4A,7K,9E,13T,18Q,22V,23E,28Y,30W,31L]-hPYY(4-36)]: 10.0 mg/mL, greater than 10.0 mg/mL and 6.42 nM.
